Consider one compound from patent US7754721B2, “Arylpiperazine derivatives and uses thereof” (Roche Palo Alto LLC, priority 2006, dated 2010).

For this assay, the target named is T1, human serotonin transporter (hSERT) (Homo sapiens, UniProt P31645).
T1 construct: expressed in transfected cells; membranes prepared
The experiment in a line: hSERT scintillation proximity assay, competition with [3H]-Citalopram. The format is binding. The following applies: membranes of HEK-293 cells, Cheng-Prusoff. The procedure: The screening assay of this example was used to determine the affinity of ligands at the hSERT transporter by competition with [^3H]-Citalopram.
Scintillation Proximity Assay (SPA) works by bringing radioligand within close proximity to the bead's scintillant to stimulate light emission. In this assay, the receptor-containing membranes were pre-coupled to the SPA beads and the binding of the appropriate radioligand to the transporter was measured. The light emission was proportional to the amount of bound radioligand. Unbound radioligand produced no signal as a result of distant proximity to scintillant (lack of energy transfer). […]
Cell membranes were prepared using a membrane preparation buffer of 50 mM TRIS (pH 7.4). […] After a second centrifugation, the pellet was re-homogenized and brought to a final volume determined during the assay. […]
The % inhibition was calculated for each compound tested [(Compound counts per minute (CPM) at maximum concentration-Non-Specific CPM)/Total CPM*100]. […]
[formula] where max=total binding, min=non specific binding, x=concentration (M) of the tested compound and n=Hill slope. The inhibition dissociation constant (Ki) of each compound was determined according to the method of Cheng-Prusoff and then converted into negative logarithm (pKi) of the Ki.

T1 sequence (P31645 whole entry): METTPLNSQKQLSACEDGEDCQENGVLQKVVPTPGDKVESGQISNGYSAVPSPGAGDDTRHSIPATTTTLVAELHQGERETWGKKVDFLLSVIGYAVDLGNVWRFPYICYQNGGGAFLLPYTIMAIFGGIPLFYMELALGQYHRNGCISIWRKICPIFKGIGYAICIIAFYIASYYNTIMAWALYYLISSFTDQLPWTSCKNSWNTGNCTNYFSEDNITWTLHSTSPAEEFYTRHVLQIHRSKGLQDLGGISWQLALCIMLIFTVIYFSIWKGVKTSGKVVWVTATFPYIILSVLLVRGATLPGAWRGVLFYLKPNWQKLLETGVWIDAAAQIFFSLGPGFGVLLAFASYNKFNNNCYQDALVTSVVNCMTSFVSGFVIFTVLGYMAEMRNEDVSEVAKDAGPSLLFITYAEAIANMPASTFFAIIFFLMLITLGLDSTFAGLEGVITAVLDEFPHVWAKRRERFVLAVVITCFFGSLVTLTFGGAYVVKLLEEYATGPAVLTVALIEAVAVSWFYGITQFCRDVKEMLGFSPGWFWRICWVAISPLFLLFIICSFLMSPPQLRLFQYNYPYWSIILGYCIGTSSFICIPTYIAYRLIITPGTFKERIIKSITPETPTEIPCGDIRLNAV

Compound `c1ccc(CC2CNCCN2c2ccc3cnccc3c2)cc1` (stereo not shown) [6-(2-Benzyl-piperazin-1-yl)-isoquinoline] gave a Ki of approximately 0.135 nM.
